Earlier results as cited in US20230134521A1, “COMPOUNDS FOR METHODS FOR PROMOTING FEMALE REPRODUCTIVE HEALTH THROUGH MEDIATION OF RENIN ANGIOTENSIN FUNCTION” (priority 2021, published 2023).
Ends that are not written are not given here.

What was measured:
[1] = system: pre-menopausal women with SIAD related disorders (hypoactive sexual desire disorder)
[2] = system: rabbit clitoral cavernosal and vaginal smooth muscle strips; conditions: organ bath; for relaxation of clitoral and vaginal smooth muscle: female rabbit clitoral (cavernosal) and vaginal smooth muscle
[3] = system: female sexual health, performance or libido; conditions: doses administered to women

| Compound | improvement to sexual health, performance or libido in women [3] | relaxation of clitoral and vaginal smooth muscle [2] | also measured |
| --- | --- | --- | --- |
| O=c1[nH]c2ccccc2n1CCN1CCN(c2cccc(C(F)(F)F)c2)CC1 [Flibanserin, 2H-benzimidazol-2-one, 1,3-dihydro-1-[2-[4-[3(tri-fluoromethyl)phenyl]-1-piperazinyl]ethyl]] | – | – | share of women in whom the benefit was seen ([1]; 100 mg daily for a minimum of 28 days): 18%; therapeutic effect on Genitopelvic Pain/Penetration Disorder (vestibulodynia, dyspareunia) or Female Orgasmic Disorder ([1]; human, in vivo): no therapeutic effect at all; median placebo-corrected increase in satisfying sexual events (SSEs) ([1]; median baseline about 2-3 SSEs per month, over a six month period): 0.5-1.0 SSEs per month |
| N=C(N)NCCC[C@H](N)C(=O)O [L-arginine] | – | – | relaxation of clitoral cavernosal smooth muscle strips in response to NO donors ([2]; rabbit clitoral cavernosal smooth muscle strips): enhanced relaxation |
| CCCc1nc(C)c2c(=O)[nH]c(-c3cc(S(=O)(=O)N4CCN(CC)CC4)ccc3OCC)nn12 [Levitra] | without improvement | – | – |
| CCCc1nn(C)c2c(=O)[nH]c(-c3cc(S(=O)(=O)N4CCN(C)CC4)ccc3OCC)nc12 [Viagra] | without improvement | – | – |
| CCCc1nn(C)c2c(=O)[nH]c(-c3cc(S(=O)(=O)N4CCN(C)CC4)ccc3OCC)nc12 [sildenafil] | – | dose-dependent relaxation | – |
| vasoactive intestinal polypeptide (HSDAVFTDNYTRLRKQMAVKKYLNSILN; ends and bridges not checked; UniProt P01282 125-152, looked up) [VIP, nonadrenergic/noncholinergic neurotransmitter] | – | dose-dependent relaxation | – |
